Values of other authors in patent US8012958B2, “Methods for treating anxiety related disorders” (Hythlam, Inc., priority 2005, dated 2011).
Like-named read-outs stand apart in the source and are kept apart here.

What was measured:
[1] = IM 2 to 3 mg (0.02 to 0.05 mg/kg); patients 60 years or older without concomitant narcotics
[2] = target: T1, monoamine oxidase B (MAO-B) (Homo sapiens, UniProt P27338); conditions: single 300 mg dose
T1 sequence (P27338 1-520): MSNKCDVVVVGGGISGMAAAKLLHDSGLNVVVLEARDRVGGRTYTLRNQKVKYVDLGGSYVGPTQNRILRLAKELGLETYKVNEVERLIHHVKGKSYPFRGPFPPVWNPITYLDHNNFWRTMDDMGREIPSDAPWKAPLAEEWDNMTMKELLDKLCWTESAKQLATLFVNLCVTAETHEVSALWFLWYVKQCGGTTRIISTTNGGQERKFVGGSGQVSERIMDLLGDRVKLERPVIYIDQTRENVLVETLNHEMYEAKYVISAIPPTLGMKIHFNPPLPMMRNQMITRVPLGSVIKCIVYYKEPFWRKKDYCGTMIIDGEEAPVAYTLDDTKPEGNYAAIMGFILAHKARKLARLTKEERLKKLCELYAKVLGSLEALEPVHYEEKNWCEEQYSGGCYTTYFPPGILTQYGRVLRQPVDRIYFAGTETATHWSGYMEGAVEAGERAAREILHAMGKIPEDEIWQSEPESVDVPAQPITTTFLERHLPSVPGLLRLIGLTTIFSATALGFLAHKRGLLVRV

[3] = target: T2, monoamine oxidase A (MAO-A) (Homo sapiens, UniProt P21397); conditions: single 300 mg dose
T2 sequence (P21397 1-527): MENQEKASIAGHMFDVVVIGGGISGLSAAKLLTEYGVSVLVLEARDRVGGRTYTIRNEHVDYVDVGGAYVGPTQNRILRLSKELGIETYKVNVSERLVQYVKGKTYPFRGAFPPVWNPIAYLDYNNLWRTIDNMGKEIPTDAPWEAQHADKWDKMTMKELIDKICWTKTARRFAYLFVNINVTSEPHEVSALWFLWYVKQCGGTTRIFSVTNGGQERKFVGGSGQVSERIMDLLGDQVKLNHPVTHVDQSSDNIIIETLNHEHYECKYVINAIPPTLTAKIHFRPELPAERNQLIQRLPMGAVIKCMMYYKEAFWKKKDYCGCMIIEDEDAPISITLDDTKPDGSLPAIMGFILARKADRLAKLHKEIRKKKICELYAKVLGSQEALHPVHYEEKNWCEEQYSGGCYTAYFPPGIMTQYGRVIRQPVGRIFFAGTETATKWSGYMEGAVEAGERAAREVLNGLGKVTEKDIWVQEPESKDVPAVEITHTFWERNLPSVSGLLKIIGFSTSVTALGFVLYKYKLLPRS

GABAA receptors = conditions: 3 μM flumazenil; ethanol withdrawn cells
[4] = not given; remark: listed apart in the source
[5] = tested on: GABAA receptor α4 subunit mRNA; conditions: for amount of α4 subunit mRNA after withdrawal of the drug: withdrawal after long-term exposure
[6] = overdose
[7] = tested on: GABAA receptors that contain α4 or α6 subunits

## Cc1ncc2n1-c1ccc(Cl)cc1C(c1ccccc1F)=NC2 [MIDAZOLAM]
[1]
  sedation during the preoperative period: (0.02 to 0.05 mg/kg) of VERSED produced adequate sedation

## O=C(NCCN1CCOCC1)c1ccc(Cl)cc1 [Moclobemide]
[2]
  inhibition of monoamine oxidase B (MAO-B): oxidase A (MAO-A) and 30% of monoamine oxidase B (MAO-B),
[3]
  inhibition of monoamine oxidase A (MAO-A): A single 300 mg dose of moclobemide inhibits 80% of monoamine

## CCC1(c2ccccc2)C(=O)NC(=O)NC1=O.CNC(C)CC1CCCCC1 [BARBEXACLONE]
In vivo
  dose equivalent to 60 mg of phenobarbital: 100 mg of barbexaclone is equivalent to 60 mg of phenobarbital.

## CC1CN2CC(=O)Nc3ccc(Cl)cc3C2(c2ccccc2)O1 (stereo not shown) [OXAZOLAM]
oxazolam
  dose equivalent to 10 mg of Diazepam: 20 mg is equivalent to 10 mg of Diazepam.

## CCCCC1(CC)C(=O)NC(=O)NC1=O [BUTOBARBITAL]
butobarbital
  dose equivalent to 10 mg of Diazepam: 50 mg of Butobarbital is equivalent to 10 mg of Diazepam; Acc. to

## CCOC(=O)c1ncn2c1CN(C)C(=O)c1cc(F)ccc1-2 [flumazenil, ethyl 8-fluoro-5,6-dihydro-5-methyl-6-oxo-4H-imidazo-[1,5-a][1,4]benzodiazepine-3-carboxylate]
GABAA receptors
  modulation of the GABA evoked Cl- current: potentiates the GABA evoked Cl— current
[4]; human, in vivo
  adverse effect on the nervous system: causing increased agitation and anxiety

## COc1ccc2c3c1O[C@H]1[C@@H](O)C=C[C@H]4[C@@H](C2)N(C)CC[C@@]341 [CODEINE]
oral
  dose about equal to 30 mg (oral) of morphine: 200 mg (oral) of codeine is about equal to 30 mg (oral) of morphine.

## Cc1ccc(-c2nc3ccc(C)cn3c2CC(=O)N(C)C)cc1 [zolpidem]
[5]
  amount of α4 subunit mRNA after withdrawal of the drug: marked increase

## CCCC(C)(COC(N)=O)COC(N)=O [MEPROBROMATE]
[6]
  ingested amount with which survival has been reported (as much as): much as 40 g.

## CCN(C(C)=O)c1cccc(-c2ccnc3c(C#N)cnn23)c1 [ZALPELON]
[5]
  amount of α4 subunit mRNA after withdrawal of the drug: marked increase

## C[C@]12C=CC(=O)N[C@@H]1CC[C@@H]1[C@@H]2CC[C@]2(C)[C@@H](C(=O)Nc3cc(C(F)(F)F)ccc3C(F)(F)F)CC[C@@H]12 [DUTASTERIDE, (5α,17β)-N-{2,5 bis(trifluoromethyl)phenyl}-3-oxo-4-azaandrost-1-ene-17-carboxamide]
[4]; clinical study, 5 mg daily for 6 months
  adverse effects compared with therapeutic dose of 0.5 mg: subjects for 6 months with no additional adverse effects to those

## CN1C(=O)CN=C(c2ccccc2)c2cc(Cl)ccc21 [diazepam]
[7]
  affinity for or efficacy at GABAA receptors that contain α4 or α6 subunits: no affinity for or efficacy
[5]; exposure at the time of ethanol withdrawal
  effect on the ethanol withdrawal-induced increase in abundance of α4 subunit mRNA: antagonizes the withdrawal-induced increase
[5]
  amount of α4 subunit mRNA after withdrawal of the drug: marked increase
